Consider 1 molecule from US20140275183A1, “AGENT FOR REDUCING SIDE EFFECTS OF KINASE INHIBITOR” (Ajinomoto Co., Inc., priority 2011, published 2014).

Series [1] concerns CDAA diet-induced liver cancer model rats. As to the kind of experiment: CDAA (choline-deficient L-amino acid defined) diet-induced liver cancer model rats, combined intake of sorafenib and BCAA. The series is classed as in vivo, Fischer 344 rats. An excerpt: Using CDAA (choline-deficient L-amino acid defined) diet-induced liver cancer model rats, the effects of the combined intake of sorafenib and branched-chain amino acids (BCAA) were investigated. The CDAA diet used a commercially available choline-deficient diet (#518753: Choline deficient and iron supplemented L-amino acid defined rat diet, manufactured by Dyets Inc.).
Six-week old Fischer 344 rats were divided into a CDAA diet intake group, a sorafenib only intake group, and a BCAA combined intake group (N=15 for each group), and the test diet was provided freely. For the CDAA diet intake group, only the CDAA diet was supplied as the test diet. For the sorafenib only intake group, a CDAA diet mixed with an amount of sorafenib tosylate tablets (Nexavar (a registered trademark) tablets 200 mg, manufactured by Bayer Pharma AG) sufficient to provide an intake of sorafenib of 16 mg/kg/day (800 mg/50 kg/day) (hereafter referred to as the “CDAA/sorafenib diet”) was supplied. For the BCAA combined intake group, a diet prepared by mixing the CDAA/sorafenib diet supplied to the sorafenib only intake group with 2.5% by mass of a BCAA formulation (Livact (a registered trademark) granules, manufactured by Ajinomoto Co., Inc.) (hereafter referred to as the “CDAA/sorafenib/BCAA diet”) was supplied. The weight ratio between isoleucine, leucine and valine in the BCAA formulation was 1:2:1.2 (isoleucine:0.952 g, leucine: 1.904 g, and valine: 1.144 g).
Each individual was autopsied either at the time of death or after 56 weeks from the start of the test (from supply of the test diet), and the effect of treatment continuation was investigated on the basis of the hepatic fibrosis inhibitory effect, the hepatocarcinogenesis rate and the survival rate.
Further, the presence or absence of hepatic fibrosis was determined on the basis of the result of Azan staining of a liver tissue section, and the result of measuring the concentration of HYP (hydroxyproline) within the liver. The presence or absence of hepatocarcinogenesis was evaluated by immunostaining a tissue section of the liver with an antibody to the precancerous marker GST-P (glutathione S-transferase placental form), and inspecting the tissue section for the presence of staining.

Series [2] concerns Huh7 cells. As to the kind of experiment: antitumor action enhancement effect, Huh7 cells implanted subcutaneously in nude mice. The series is classed as in vivo, BALB/c nude mice. Particulars: sorafenib oral 5 mg/kg for 2 weeks then 30 mg/kg for 5 days, ± feed containing 3% BCAA; three weeks after start; FIG. 3. The method, then: Huh7 cells were implanted subcutaneously in BALB/c nude mice in an amount of 1×10^7 cell/mouse.
After one week, the mice were split into groups based on tumor diameter, and the groups were subjected to 2 weeks of 5 mg/kg sorafenib oral administration±food supply containing 3% BCAA (with the sorafenib administered 5 days/week).
In the third week of administration, the sorafenib dose was increased from 5 mg/kg to 30 mg/kg, and oral administration was continued for 5 days. During this time, supply of the feed containing 3% BCAA was continued.
Three weeks after the start of administration, the tumor diameter of each group was measured, and the average value+SE for the tumor volume was calculated. The tumor volume was calculated as tumor major axis/2×(minor axis)^2.

Setting [3] is: sorafenib 16 mg/kg/day in CDAA diet, with or without 2.5% BCAA formulation.

For the molecule `CNC(=O)c1cc(Oc2ccc(NC(=O)Nc3ccc(Cl)c(C(F)(F)F)c3)cc2)ccn1` [sorafenib, 4-[4-[[4-chloro-3-(trifluoromethyl)phenyl]carbamoylamino]phenoxy]-N-methylpyridine-2-carboxamide], the “number of rats in which hepatic fibrosis or precancerous lesions were observed, compared with the CDAA diet intake group” value in series [1] (Azan staining, liver HYP, GST-P immunostaining, autopsy at death or after 56 weeks) is listed as “fewer”. Further, in series [1] (setting [3]), the “bleeding (side effect)” value was “a tendency for bleeding to occur in the gastrointestinal tract, including the anal region, was also observed”; the “loss of appetite (side effect)” value is on record as “a loss of appetite due to gastrostenosis was also noted”; the “redness (cutaneous side effect)” value is “redness was noted not only on the four legs, but also on the trunk and the skin”. Besides, in series [2], the “degree of shrinkage in the tumor volume compared with the control group” value is reported as “unchanged”.
